The source of these data is patent US12697316B2, “Combination therapy with acetyl-leucine and miglustat” (INTRABIO LTD., priority 2019, dated 2026).

The conditions of data set [1]: cited from earlier work.
Data set [2] relates to Npc1^−/− mice. Description: CatWalk automated gait analysis in Npc1−/− mice. It is filed as in vivo, mouse. Particulars: Npc1−/− mice, gait analysis at 10 weeks of age. As for the experimental part:
(§1) BALBc/NPC ^h and Sandhoff mice were bred as heterozygotes to generate affected mice (Npc1^−/−, Hexb^−/−) and controls (Npc^+/+, Hexb^+/+). The mice were housed under non-sterile conditions, with food and water available ad libitum. All experiments were conducted using protocols approved by the UK Home Office Animal Scientific Procedures Act, 1986.
(§2) ADLL and enantiomers (ADLL: Molekula #73891210, ALL: Sigma Aldrich #441511, ADL: Sigma #A0876) were administered as dry admix in powdered mouse diet (PicoLab Rodent Diet 20/5053, LabDiet) at a dose of 0.1 g/kg/day for in vivo studies. Treatment groups for in vivo study consisted of at least 5 mice per group. In vitro studies were conducted with each compound dissolved in PBS to generate a 50 mM stock solution and diluted to a 1 mM working concentration in media (DMEM High Glucose-Gibco #10566016).
(§3) Miglustat (Monsanto/Oxford GlycoSciences) was administered as a dry solid mixed with powdered chow (600 mg/kg/day) (see above) alone or in combination with ADLL.
(§4) The weight and activity of each mouse was recorded weekly until reaching the humane endpoint (defined as a loss of 1 g body weight within 24 h). Gait analysis was performed using CatWalk 10.5 system (Noldus) according to the manufacturer's instructions and five runs were recorded per animal at each time point. The camera was set to 40 cm below the walkway, the walkway was approximately 4 cm wide, and detection settings set to camera gain 14.05 and green intensity 0.12. Motor function was measured using an accelerating NG Rota Rod for mice (Ugo Basile) starting from 1 rpm to 10 rpm, accelerating every 30 seconds by one rpm. Bar crossing experiments on Sandhoff animals were conducted to measure motor strength and coordination. The apparatus used was modified from published studies. Briefly, a metal bar (1.2 mm width and 26 cm in length) was suspended horizontally between two wooden supports 30 cm high over a cushioned surface and animals were allowed to grasp the center of the bar with forepaws only, the tail was released, and the clock was started. Latency to cross or fall from the bar was scored, with 120 sec, maximum, to termination of each trial. A score was given to each animal between +120 and −120. If crossing time was greater than 0, then score=120−CT; if falling time was greater than 0, the score=FT−120.

For data set [3], the system named is Npc1^−/− mice. Description: Survival / life span of Npc1−/− mice. It is filed as in vivo, mouse. As to conditions: Npc1−/− mice; ADLL 0.1 g/kg/day, miglustat 600 mg/kg/day in chow; untreated Npc1−/− 87 days. Here is the method:
as §1, §2, §3
as §4, with “Briefly, a metal bar (1.2 mm width and 26 cm in length) was suspended horizontally between two wooden supports 30 cm high over a cushioned surface and animals were allowed to grasp the center of the bar with forepaws only, the tail was released, and the clock was started.” left out, “A score was given to each animal between +120 and −120. If crossing time was greater than 0, then score=120−CT; if falling time was greater than 0, the score=FT−120.” left out

Each structure is given as a SMILES string.

For `CCCCN1C[C@H](O)[C@@H](O)[C@H](O)[C@H]1CO` [miglustat, 1,5-(butylimino)-1,5-dideoxy-D-glucitol], in data set [1] (NPC first-line therapy, Champion et al. 2010), the “adverse effects in the treatment subjects” value was “causes unwanted weight loss and gastrointestinal disturbances”. Also, the weight loss entry in data set [1] (known effect, through appetite suppression) is “known to cause weight loss through appetite suppression”. For the same compound, in data set [2], the Stand mean entry was “significantly improved” and the “hind Duty Cycle percentages” value was “showed no benefit”. Moreover, the median survival in data set [3] amounted to 117 days.
